Experimental data published in patent publication US20250026733A1, “DEUTERATED ANALOGS OF PYROLE INHIBITORS OF ERK, SYNTHESIS THEREOF AND INTERMEDIATES THERETO” (BIOMED VALLEY DISCOVERIES, INC., priority 2022, published 2025).
Like-named read-outs stand apart in the source and are kept apart here. Marks after values point to notes of the source that are not given here.

Key:
A375 cells = experiment: A375 proliferation assay (Cell TiterGlo); type: cell-based; details: Homo sapiens, A-375, 72 hours
Procedure: Mechanism of Action (MOA) Cell Assay—A375 Cell Proliferation, pERK/ERK and pRSK/RSK Analysis:
Briefly, A375 cells were plated at 10,000 cells/well in three 96 well plates. Plates were incubated overnight at 37° C. and allowed to recover. Cells were washed with 150 μL of DPBS and 90 μL of fresh media was added to each well. The cells were then treated with a dose response of the selected compounds. Compounds were diluted from stock concentrations (10 mM in DMSO). Serial dilutions were made in DMSO, yielding 8 total different concentrations per compound. At time of compound addition, the control plate was analyzed using Cell TiterGlo to set baseline for proliferation. Compound treated cells were allowed to grow at 37° C./5% CO2 for 72 hours then analyzed using Cell TiterGlo according to kit protocol.

[1] = Steady-state exposure of ulixertinib and metabolites in human subjects; type: in vivo
Text: (§1) The steady state exposure levels of non-isotopically enriched parent ulixertinib and related metabolites in rat (day 5) and human subjects (day 15) is provided in TABLE 1 below: […]

[2] = Steady-state exposure of ulixertinib and metabolites in rat; type: in vivo
Text: as §1

[3] = Pharmacokinetics and metabolite formation in rats; type: in vivo, rat; details: for AUC(0-t) / half-life: both sexes
Procedure: Ulixertinib, Formulas 18A, 19A, and 21A were dosed twice daily (12 hours apart, ±30 minutes) for five consecutive days (10 doses/animal) to rats via oral gavage (PO). Each compound was administered at a dose of 12.5 mg/kg to 6 rats (3 male/3 female, N=6 rats/compound). Each compound was formulated in 1% (w/v) carboxymethylcellulose (CMC) in water at a concentration of 1.25 mg/mL. Following the second (p.m.) dose on Day 5, blood samples were collected from each rat at approximately 0.5, 1, 2, 4, 6, 8, and 12 hours post-dose. Blood samples were centrifuged to obtain plasma. Plasma samples were analyzed for concentrations of the dosed compounds and selected metabolites using an established LC-MS/MS method. The lower limit of quantitation of each compound was 1.00 ng/mL. The rat half-life values (determined by non-compartmental analysis using WinNonlin software) for each compound are shown in Table 7, and the areas under curve from time 0 to hour 12 (AUC0-12), calculated using the linear trapezoidal rule, for each dosed compound and selected metabolites are presented in Table 8.

pRSK/RSK in A375 cells = experiment: A375 pRSK/RSK dose response study (ELISA); type: cell-based; details: Homo sapiens, A-375, pRSK and total RSK ELISA
Procedure: A375 pRSK/RSK Dose Response Study
Briefly, A375 cells were plated at 30,000 cells/well in 2×96 well plates, allowed to recover overnight, washed and fed fresh media the next day then treated with a dose response of the selected compounds. Following the determined pretreatment with the compounds at 37° C./5% CO2 the media was aspirated, and cells lysed with cold, complete MSD lysis buffer. pRSK and total RSK were analyzed using CST/PathScan pRSK and total RSK ELISAS according to the respective kit protocols. All samples were analyzed at 90% of remaining sample in pRSK and 10% of remaining sample in total RSK ELISA, which was performed following kit protocols.

| Compound | IC50 (A375 cells) [nM] | % of total Ulixertinib related exposure ([1]; day 15, steady state) [%] | AUC at 15 day ([1]; in vivo, day 15, non-isotopically enriched ulixertinib and related metabolites, read-out: Steady-State AUC (Mean ± SD)) [µg·h/mL] | % of total Ulixertinib related exposure ([2]; day 5, steady state) [%] | AUC at 5 day ([2]; in vivo, day 5, non-isotopically enriched ulixertinib and related metabolites, read-out: Steady-State AUC (Mean ± SD)) [µg·h/mL] | AUC(0-t) ([3]; rat plasma, 12.5 mg/kg PO twice daily for five days, after second dose on Day 5, N=6, read-out: AUC0-12, Parent, Mean) [µg·h/mL] | half-life ([3]; rat plasma, 12.5 mg/kg PO twice daily for five days, after second dose on Day 5, N=6, read-out: Half-life, t1/2, Mean (converted)) [h] | IC50 (pRSK/RSK in A375 cells) [nM] | AUC(0-t) ([3]; rat, in vivo, po, 12.5 mg/kg) [µg·h/mL] | half-life ([3]; rat, in vivo, po, 12.5 mg/kg) [h] | AUC0-12 M2, percent change relative to Ulixertinib ([3]; both, rat, in vivo) | AUC0-12 M3, percent change relative to Ulixertinib ([3]; both, rat, in vivo) | AUC0-12 M6, percent change relative to Ulixertinib ([3]; both, rat, in vivo) | AUC0-12 Parent, percent change relative to Ulixertinib ([3]; both, rat, in vivo) | Half-life, percent change relative to Ulixertinib ([3]; both, rat, in vivo) | longer mean half-life than ulixertinib ([3]; both, rat, in vivo) [%] |
| --- | --- | --- | --- | --- | --- | --- | --- | --- | --- | --- | --- | --- | --- | --- | --- | --- |
| CC(C)Nc1cc(-c2c[nH]c(C(=O)N[C@H](CO)c3cccc(Cl)c3)c2)c(Cl)cn1 [Ulixertinib, reference compound] | 250 | 37.5 | 29.6 ± 16.1 | 91.1 | 179 ± 49 | 173 | 3.67 | 37 |  |  |  |  |  |  |  |  |
| [2H]C([2H])([2H])C([2H])(Nc1cc(-c2c[nH]c(C(=O)N[C@H](CO)c3cccc(Cl)c3)c2)c(Cl)cn1)C([2H])([2H])[2H] [Formula 18, 4-(5-chloro-2-((propan-2-yl-d7)amino)pyridin-4-yl)-N-(1-(3-chlorophenyl)-2-hydroxyethyl)-1H-pyrrole-2-carboxamide] | 300 |  |  |  |  |  |  | 40 |  |  |  |  |  |  |  |  |
| Cl.[2H]C(C)(C)Nc1cc(-c2c[nH]c(C(=O)N[C@H](CO)c3cccc(Cl)c3)c2)c(Cl)cn1 [Formula 21A] |  |  |  |  |  |  |  |  | 193 | 3.81 | (−17%^a) | (+8%^a) | (+7%^a) | (+12%^a) | (+4%^a) | 4 |
